Results on one compound are retold here after US7250158B1, “Skin lightening agents, compositions and methods” (Conopco, Inc., priority 2006, dated 2007).

The assay concerns Melanoderm cultures. The assay is described as follows: Solvable melanin assay on Melanoderm cultures (3-D skin model). The class given is cell-based. To be noted: for OD = 490 nm (melanin content): Melanoderm cultures fed every other day for 2 weeks, Untreated control 1.259, ETOH control 1.035. On the procedure: This experiment was carried out using a Melanoderm cultures. […] was measured using a chromameter to assay the degree of melanization of a 3-D skin model. Melanoderm cultures were obtained from MatTek Corporation, Ashland, Mass. The Melanoderm was maintained according to the manufacturer's instructions. The basal media used for the maintenance of the Melanoderm cultures was DMEM supplemented with unspecified quantities of Epidermal growth factor, Insulin, Hydrocortisone, and proprietary epidermal differentiation compounds, in addition to anti-fungal and antibiotics. For the long term maintenance of the Melanoderms, the basal media was supplemented with both bFGF and a-MSH, compounds which are stimulators of melanocyte growth and melanogenesis. The cultures were fed every other day for a total of 2 weeks—fresh active preparations, prepared in DMSO or culture media, were also applied to the Melanoderms when feeding was performed. Each treatment condition was done in duplicate and digital photographs were taken of the Melanoderm cultures to assess overall pigmentation. As well, microscopic images of the Melanoderms were done to assess the cell viability of the keratinocytes and melanocytes. For further evidence that the treatments were/not cytotoxic, an LDH assay (Promega, Madison, Wis.) was performed on the supernatants from 24 hour post-treatment cultures. After treatment, tissues are usually frozen until completion of the experiment. Thaw tissues, a few at a time and place in D-PBS to remove excess phenol red from the culture medium and residual test article. Remove a single tissue from the insert. Blot dry and place in 1.7 ml. microfuge tube. Repeat for all samples. Add 250 ul Solvable™ (Tissue and Gel Solubilizer 0.5 M—Packard BioScience Co. Catalogue No. 6NE9100 (NEF910)). Close the tube and make sure that the tissue is completely submerged. Incubate at 60° C. overnight along with standards. In the morning, vortex the samples. Sometimes thick tissues will require additional time to complete the solution process. To Prepare Standard: Dissolve Melanin (Sigma cat. M 8631) in Solvable at 1 mg/ml. The solution may be warmed gently for 15 minutes at 37° C. Store solution in dark. To Prepare Standard Curve: Prepare dilutions from the standard containing 0 ug to 250 ug of melanin in a total of 250 ul Solvable. Incubate dilutions along with samples. To Read Assay: Cool samples and standards. Centrifuge at 13,000 rpm for 5 minutes to pellet. Fill microwell plate (C-96) with 200 ul each of samples and standards. There is some foaming of samples when pipetted. Blow gently across the samples to break bubbles prior to reading the plate. Read plate at […].

For the compound `O=C(O)C(=O)Cc1ccc(O)cc1` [4-hydroxyphenylpyruvate], the “OD = 490 nm (melanin content)” value runs as follows: (5 uM) 1.236; (50 uM) 0.687; (500 uM) 0.565; (1000 uM) 0.453. The “effect on melanin synthesis” value (conclusion from Table 5, Melanoderm cultures) is on record as “reduce melanin synthesis”.
